Reference: patent US6358885B1, “Substituted phenylheterocyclic herbicides” (Mississippi State University, priority 1992, dated 2002)

Assays:
crabgrass = experiment: Test B preemergence/postemergence greenhouse plant response rating 0 to 10; format: in vivo, Digitaria spp.; conditions: 0 to 10 scale
How it was run: (§1)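 Test chemicals, dissolved in a non-phytotoxic solvent, were applied to soil at planting and, at the same time, over foliage of seedlings at the one to four leaf stage.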

morningglory [1] = experiment: as above; format: in vivo, Ipomoea hederacea; conditions: 0 to 10 scale
How it was run: as §1

wild buckwheat = experiment: Test C preemergence/postemergence greenhouse plant response rating 0 to 100; format: in vivo, Polygonum convolvulus; conditions: POSTEMERGENCE; for Plant response rating, Wild buckwheat: 0 to 100 scale
How it was run: (§2)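 Compounds in non-phytotoxic solvent applied preemergence to sandy loam one day after planting, postemergence at the 1–4 leaf stage, or to ~2.5 cm floodwater over silt loam.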

chickweed [2] = experiment: as above; format: in vivo, Stellaria media; conditions: POSTEMERGENCE; for Plant response rating, Chickweed: 0 to 100 scale
How it was run: as §2

wheat = experiment: Test B preemergence/postemergence greenhouse plant response rating 0 to 10; format: in vivo, Triticum aestivum; conditions: 0 to 10 scale
How it was run: as §1

morningglory [3] = experiment: Test C preemergence/postemergence greenhouse plant response rating 0 to 100; format: in vivo, Ipomoea hederacea; conditions: POSTEMERGENCE; for Plant response rating, Morningglory: 0 to 100 scale
How it was run: as §2

soybean [4] = experiment: as above; format: in vivo, Glycine max; conditions: POSTEMERGENCE; for Plant response rating, Soybean: 0 to 100 scale
How it was run: as §2

rape = experiment: Test B preemergence/postemergence greenhouse plant response rating 0 to 10; format: in vivo, Brassica napus; conditions: 0 to 10 scale
How it was run: as §1

wild oat = experiment: as above; format: in vivo, Avena fatua; conditions: 0 to 10 scale
How it was run: as §1

downy brome = experiment: Test C preemergence/postemergence greenhouse plant response rating 0 to 100; format: in vivo, Bromus tectorum; conditions: POSTEMERGENCE; for Plant response rating Downy Brome: 0 to 100 scale
How it was run: as §2

corn = experiment: Test B preemergence/postemergence greenhouse plant response rating 0 to 10; format: in vivo, Zea mays; conditions: 0 to 10 scale
How it was run: as §1

barley = experiment: Test C preemergence/postemergence greenhouse plant response rating 0 to 100; format: in vivo, Hordeum vulgare; conditions: POSTEMERGENCE; for Plant response rating Barley Igri: 0 to 100 scale
How it was run: as §2

purple nutsedge = experiment: Test B preemergence/postemergence greenhouse plant response rating 0 to 10; format: in vivo, Cyperus rotundus; conditions: 0 to 10 scale
How it was run: as §1

soybean [5] = experiment: as above; format: in vivo, Glycine max; conditions: 0 to 10 scale
How it was run: as §1

sorghum = experiment: as above; format: in vivo, Sorghum bicolor; conditions: 0 to 10 scale
How it was run: as §1

chickweed [6] = experiment: as above; format: in vivo, Stellaria media; conditions: 0 to 10 scale
How it was run: as §1

bedstraw = experiment: Test C preemergence/postemergence greenhouse plant response rating 0 to 100; format: in vivo, Galium aparine; conditions: POSTEMERGENCE; for Plant response rating, Bedstraw: 0 to 100 scale
How it was run: as §2

umbrella sedge = experiment: Test C flood test plant response rating 0 to 100; format: in vivo, Cyperus difformis; conditions: for Plant response rating (0 to 100), Umbrella sedge: under POSTEMERGENCE head (flood test species); for Plant response rating Umbrella sedge: flood test species listed under POSTEMERGENCE, 0 to 100 scale
How it was run: as §2

## C=CCN1C(=O)COc2cc(F)c(-c3nn4c(c3Br)CCCC4)cc21 [Compound 41]
crabgrass; POSTEMERGENCE, Rate 50 g/ha
  Plant response rating, Crabgrass: 3
crabgrass; POSTEMERGENCE, Rate 200 g/ha
  Plant response rating, Crabgrass: 5
crabgrass; PREEMERGENCE, Rate 50 g/ha
  Plant response rating, Crabgrass: 0
crabgrass; Rate 200 g/ha, PREEMERGENCE
  Plant response rating, Crabgrass: 6
Morningglory [1]; POSTEMERGENCE, Rate 50 g/ha
  Plant response rating, Morningglory: 9
Morningglory [1]; PREEMERGENCE, Rate 50 g/ha
  Plant response rating, Morningglory: 0
Morningglory [1]; Rate 200 g/ha, POSTEMERGENCE
  Plant response rating, Morningglory: 10
Morningglory [1]; Rate 200 g/ha, PREEMERGENCE
  Plant response rating, Morningglory: 7
Wild buckwheat; 62 g/ha
  Plant response rating, Wild buckwheat: 100
Wild buckwheat; 125 g/ha
  Plant response rating, Wild buckwheat: 100
Wild buckwheat; Rate 16 g/ha
  Plant response rating (0 to 100), Wild buckwheat: 95
Wild buckwheat; Rate 31 g/ha
  Plant response rating (0 to 100), Wild buckwheat: 100
Chickweed [2]; 62 g/ha
  Plant response rating, Chickweed: 100
Chickweed [2]; 125 g/ha
  Plant response rating, Chickweed: 100
Chickweed [2]; Rate 16 g/ha
  Plant response rating (0 to 100), Chickweed: 90
Chickweed [2]; Rate 31 g/ha
  Plant response rating (0 to 100), Chickweed: 90
wheat; POSTEMERGENCE, Rate 50 g/ha
  Plant response rating, Wheat: 5
wheat; PREEMERGENCE, Rate 50 g/ha
  Plant response rating, Wheat: 1
wheat; Rate 200 g/ha, POSTEMERGENCE
  Plant response rating, Wheat: 5
wheat; Rate 200 g/ha, PREEMERGENCE
  Plant response rating, Wheat: 3
Morningglory [3]; 62 g/ha
  Plant response rating, Morningglory: 100
Morningglory [3]; 125 g/ha
  Plant response rating, Morningglory: 100
Morningglory [3]; Rate 16 g/ha
  Plant response rating (0 to 100), Morningglory: 70
Morningglory [3]; Rate 31 g/ha
  Plant response rating (0 to 100), Morningglory: 100
Soybean [4]; 62 g/ha
  Plant response rating, Soybean: 70
Soybean [4]; 125 g/ha
  Plant response rating, Soybean: 100
Soybean [4]; Rate 16 g/ha
  Plant response rating (0 to 100), Soybean: 60
Soybean [4]; Rate 31 g/ha
  Plant response rating (0 to 100), Soybean: 70
rape; POSTEMERGENCE, Rate 50 g/ha
  Plant response rating, Rape: 10
rape; PREEMERGENCE, Rate 50 g/ha
  Plant response rating, Rape: 10
rape; Rate 200 g/ha, POSTEMERGENCE
  Plant response rating, Rape: 10
rape; Rate 200 g/ha, PREEMERGENCE
  Plant response rating, Rape: 10
Wild oat; POSTEMERGENCE, Rate 50 g/ha
  Plant response rating, Wild oat: 3
Wild oat; PREEMERGENCE, Rate 50 g/ha
  Plant response rating, Wild oat: 2
Wild oat; Rate 200 g/ha, POSTEMERGENCE
  Plant response rating, Wild oat: 4
Downy brome; 62 g/ha
  Plant response rating Downy Brome: 50
Downy brome; 125 g/ha
  Plant response rating Downy Brome: 60
Downy brome; Rate 16 g/ha
  Plant response rating (0 to 100), Downy Brome: 30
Downy brome; Rate 31 g/ha
  Plant response rating (0 to 100), Downy Brome: 40
corn; POSTEMERGENCE, Rate 200 g/ha
  Plant response rating, Corn: 5
corn; PREEMERGENCE, Rate 50 g/ha
  Plant response rating, Corn: 0
corn; Rate 200 g/ha, PREEMERGENCE
  Plant response rating, Corn: 2
barley; 62 g/ha
  Plant response rating Barley Igri: 50
barley; 125 g/ha
  Plant response rating Barley Igri: 60
barley; Rate 16 g/ha
  Plant response rating (0 to 100), Barley Igri: 30
barley; Rate 31 g/ha
  Plant response rating (0 to 100), Barley Igri: 40
Purple nutsedge; POSTEMERGENCE, Rate 50 g/ha
  Plant response rating, Nutsedge: 4
Purple nutsedge; PREEMERGENCE, Rate 50 g/ha
  Plant response rating, Nutsedge: 0
Purple nutsedge; Rate 200 g/ha, POSTEMERGENCE
  Plant response rating, Nutsedge: 4
Purple nutsedge; Rate 200 g/ha, PREEMERGENCE
  Plant response rating, Nutsedge: 0
Soybean [5]; POSTEMERGENCE, Rate 50 g/ha
  Plant response rating, Soybean: 9
Soybean [5]; PREEMERGENCE, Rate 50 g/ha
  Plant response rating, Soybean: 0
Soybean [5]; Rate 200 g/ha, POSTEMERGENCE
  Plant response rating, Soybean: 10
Soybean [5]; Rate 200 g/ha, PREEMERGENCE
  Plant response rating, Soybean: 0
sorghum; POSTEMERGENCE, Rate 50 g/ha
  Plant response rating, Sorghum: 5
sorghum; PREEMERGENCE, Rate 50 g/ha
  Plant response rating, Sorghum: 0
sorghum; Rate 200 g/ha, POSTEMERGENCE
  Plant response rating, Sorghum: 6
sorghum; Rate 200 g/ha, PREEMERGENCE
  Plant response rating, Sorghum: 1
Chickweed [6]; POSTEMERGENCE, Rate 50 g/ha
  Plant response rating, Chickweed: 10
Chickweed [6]; POSTEMERGENCE, Rate 200 g/ha
  Plant response rating, Chickweed: 10
Chickweed [6]; PREEMERGENCE, Rate 50 g/ha
  Plant response rating, Chickweed: 10
Chickweed [6]; Rate 200 g/ha, PREEMERGENCE
  Plant response rating, Chickweed: 10
bedstraw; 62 g/ha
  Plant response rating, Bedstraw: 80
bedstraw; 125 g/ha
  Plant response rating, Bedstraw: 90
bedstraw; Rate 16 g/ha
  Plant response rating (0 to 100), Bedstraw: 70
bedstraw; Rate 31 g/ha
  Plant response rating (0 to 100), Bedstraw: 70
Umbrella sedge; Rate 16 g/ha
  Plant response rating (0 to 100), Umbrella sedge: 60
Umbrella sedge; Rate 31 g/ha
  Plant response rating (0 to 100), Umbrella sedge: 60
Umbrella sedge; 62 g/ha
  Plant response rating Umbrella sedge: 80
Umbrella sedge; 125 g/ha
  Plant response rating Umbrella sedge: 90
